# Source: US7056947B2, “Aza-peptide epoxides” (Georgia Tech Research Corp., priority 2002, dated 2006)
# Experiments:
# Assay type in all cases: biochemical
# papain = target: T1, papain (Carica papaya, UniProt P00784); experiment: Inhibition of papain, incubation method; conditions: second-order rate constant, NI = no inhibition; for kinact/KI: pH 7.5, read-out: kobs/[I] papain
# T1 sequence (P00784 134-345): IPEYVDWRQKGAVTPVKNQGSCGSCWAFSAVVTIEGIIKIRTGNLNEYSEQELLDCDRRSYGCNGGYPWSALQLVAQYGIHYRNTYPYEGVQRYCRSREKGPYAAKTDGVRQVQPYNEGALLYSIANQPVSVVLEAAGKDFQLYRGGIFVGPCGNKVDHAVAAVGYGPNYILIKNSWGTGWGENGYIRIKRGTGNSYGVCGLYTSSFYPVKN
# Procedure: (§1) The release of 7-amino-4-methylcoumarin was monitored (λex=360 nm, λem=465 nm) using a Tecan Spectra Fluor microplate reader. Pseudo first-order inactivation rate constants were obtained from plots of In vt/vo versus time.
# The incubation method was also used for papain. The inhibition incubation buffer for papain was 50 mM Hepes buffer at pH 7.5, containing 2.5 mM DTT and 2.5 mM EDTA. The assay used the substrate Z-Phe-Arg-pNA (53.7 μM) in the same buffer. The approximate concentration of papain added to the incubation buffer was 0.29 mg/mL. The release of p-nitroanilide was monitored at 405 nm with a Molecular Devices Thermomax microplate reader.
# cathepsin B = cathepsin B (Homo sapiens, UniProt P07858); experiment: Inhibition of cathepsin B, incubation method; conditions: second-order rate constant, NI = no inhibition; for kinact/KI: pH 6, read-out: kobs/[I] cathepsin B
# Excerpt: as §1
# caspase-1 = target: T2, caspase-1 (Homo sapiens, UniProt P29466, D381E); experiment: Caspase-1 progress curve assay; conditions: D381E variant, substrate Ac-YVAD-AMC, 30° C.
# T2 construct: His tag (N); made in house; host or cells: E. coli
# T2 sequence (P29466 120-297 limits assumed): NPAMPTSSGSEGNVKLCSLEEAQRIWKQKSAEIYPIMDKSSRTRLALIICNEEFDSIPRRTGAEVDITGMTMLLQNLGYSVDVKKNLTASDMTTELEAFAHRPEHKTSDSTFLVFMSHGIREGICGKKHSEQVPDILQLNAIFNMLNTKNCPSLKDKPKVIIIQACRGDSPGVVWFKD
# T2 sequence (P29466 317-404 D381E limits assumed): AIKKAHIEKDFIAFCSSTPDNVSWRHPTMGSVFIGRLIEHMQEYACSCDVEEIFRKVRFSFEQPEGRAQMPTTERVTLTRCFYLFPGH
# Procedure, shortened: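 Autolysis-resistant D381E caspase-1 (E. coli, N-His tag), about 2 nM, added with 15 μM Ac-YVAD-AMC in HEPES/glycerol/EDTA buffer with 5 mM DTT to prewarmed compound at 30 °C. AMC fluorescence followed 900 s, triplicate curves fit to irreversible inactivation; kon (M^−1s^−1) from regression slope.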
# caspase-3 = target: T3, caspase-3 (Homo sapiens, UniProt P42574); experiment: Caspase-3 progress curve assay; conditions: substrate Z-DEVD-AFC; NI = no inhibition
# T3 construct: made in house; host or cells: E. coli
# T3 sequence (P42574 29-175 limits assumed): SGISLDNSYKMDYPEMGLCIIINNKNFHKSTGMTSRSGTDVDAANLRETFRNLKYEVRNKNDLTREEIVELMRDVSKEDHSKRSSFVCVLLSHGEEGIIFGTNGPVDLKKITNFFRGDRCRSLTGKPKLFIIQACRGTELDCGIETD
# T3 sequence (P42574 176-277 limits assumed): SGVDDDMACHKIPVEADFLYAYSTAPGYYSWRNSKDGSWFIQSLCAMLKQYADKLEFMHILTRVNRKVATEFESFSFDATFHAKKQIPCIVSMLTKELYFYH
# Procedure, shortened: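 E. coli-expressed caspases, pre-activated 10 min at 37° C with 10 mM DTT, were added to 100 μM Z-DEVD-AFC plus inhibitor in 50 mM Hepes, 100 mM NaCl, 0.1% CHAPS, 10% sucrose, 10 mM DTT, pH 7.4. AFC fluorescence (ex 400/em 505 nm) was followed; inhibition rates and equilibria came from progress curves.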
# calpain = experiment: Inhibition of calpain; conditions: second-order rate constant; NI = no inhibition
SMILES,kinact/KI (papain),kobs/[I] calpain (calpain),kobs/[I] papain (papain),also measured
"CC(C)[C@H](NC(=O)CCc1ccccc1)C(=O)N[C@@H](C)C(=O)NN(CC(=O)O)C(=O)[C@@H]1O[C@H]1C(=O)OCc1ccccc1 (relative stereo) [23d (trans), trans-3-(N^2-(N-3-Phenylpropanoylvalylalanyl)-N^1-carboxylmethylhydrazinocarbonyl)oxirane-2-carboxylic Acid Benzyl Ester]",< 10 M⁻¹ s⁻¹,–,–,kinact/KI (cathepsin B): < 10 M⁻¹ s⁻¹; k2 caspase-1 (caspase-1): 18070 ± 2625 M⁻¹ s⁻¹; k2 caspase-3 (caspase-3): 680 ± 140 M⁻¹ s⁻¹
"CCOC(=O)[C@@H]1O[C@H]1C(=O)N(CCc1ccccc1)NC(=O)[C@H](CC(C)C)NC(C)=O (relative stereo) [Ac-Leu-AHph-trans-EP-COOEt, trans-3-(N^2-(N-Acetylleucyl)-N^1-phenylethylhydrazinocarbonyl)oxirane-2-carboxylic Acid Ethyl Ester]",1.9 M⁻¹ s⁻¹,0.84 M⁻¹ s⁻¹,–,kinact/KI (cathepsin B): 0.59 M⁻¹ s⁻¹
"CCOC(=O)[C@@H]1O[C@H]1C(=O)N(CC(C)C)NC(=O)[C@H](CC(C)C)NC(C)=O (relative stereo) [Ac-Leu-ALeu-trans-EP-COOEt, trans-3-(N^2-(N-Acetylleucyl)-N^1-isobutylhydrazinocarbonyl)oxirane-2-carboxylic Acid Ethyl Ester]",2.09 M⁻¹ s⁻¹,1.48 M⁻¹ s⁻¹,–,kinact/KI (cathepsin B): 8 M⁻¹ s⁻¹
"CCOC(=O)[C@@H]1O[C@H]1C(=O)N(CCc1ccccc1)NC(=O)OCc1ccccc1 (relative stereo) [Cbz-AHph-trans-EP-COOEt, trans-3-(N^2-(N-Benzyloxycarbonyl)-N^1-phenylethylhydrazinocarbonyl)oxirane-2-carboxylic Acid Ethyl Ester]",–,2.44 M⁻¹ s⁻¹,18.8 M⁻¹ s⁻¹,kobs/[I] cathepsin B (cathepsin B): 8.91 M⁻¹ s⁻¹
"CCOC(=O)[C@@H]1O[C@H]1C(=O)N(CC(C)C)NC(=O)OCc1ccccc1 (relative stereo) [Cbz-ALeu-trans-EP-COOEt, trans-3-(N^2-(N-Benzyloxycarbonyl)-N^1-isobutylhydrazinocarbonyl)oxirane-2-carboxylic Acid Ethyl Ester]",–,1.75 M⁻¹ s⁻¹,16.1 M⁻¹ s⁻¹,kobs/[I] cathepsin B (cathepsin B): 4.43 M⁻¹ s⁻¹
"CCOC(=O)CN(NC(=O)[C@H](C)NC(=O)[C@H](C)NC(=O)OCc1ccccc1)C(=O)[C@@H]1O[C@H]1C(=O)OCC (relative stereo) [Cbz-Ala-Ala-NHN(CH2COOEt)-trans-EP-COOEt, trans-3-(N^2-(N-Benzyloxycarbonylalanylalanyl)-N^1-ethoxycarbonylmethylhydrazinocarbonyl)oxirane-2-carboxylic Acid Ethyl Ester]",8.17 M⁻¹ s⁻¹,–,–,kinact/KI (cathepsin B): 2.53 M⁻¹ s⁻¹
"CCOC(=O)[C@@H]1O[C@H]1C(=O)N(CC)NC(=O)C(CC(C)C)NC(=O)OCc1ccccc1 (relative stereo) [Cbz-Leu-AAbu-trans-EP-COOEt, trans-3-(N^2-(N-Benzyloxycarbonyleucyl)-N^1-ethylhydrazinocarbonyl)oxirane-2-carboxylic Acid Ethyl Ester]",–,1.98 M⁻¹ s⁻¹,4.94 M⁻¹ s⁻¹,–
"CCN(NC(=O)[C@H](CC(C)C)NC(=O)OCc1ccccc1)C(=O)[C@@H]1O[C@H]1C(=O)O (relative stereo) [Cbz-Leu-AAbu-trans-EP-COOH, trans-3-(N-(N-Benzyloxycarbonyleucyl)-N^1-ethylhydrazinocarbonyl)oxirane-2-carboxylic Acid]",–,0.57 M⁻¹ s⁻¹,1.47 M⁻¹ s⁻¹,–
"CCOC(=O)[C@@H]1O[C@@H]1C(=O)N(CCc1ccccc1)NC(=O)[C@H](CC(C)C)NC(=O)OCc1ccccc1 (relative stereo) [Cbz-Leu-AHph-cis-EP-COOEt, cis-3-(N-(N-Benzyloxycarbonyleucyl)-N^1-phenylethylhydrazinocarbonyl)oxirane-2-carboxylic Acid Ethyl Ester]",–,1.09 M⁻¹ s⁻¹,1.03 M⁻¹ s⁻¹,–
"CCOC(=O)[C@@H]1O[C@@H]1C(=O)N(CC(C)C)NC(=O)C(CC(C)C)NC(=O)OCc1ccccc1 (relative stereo) [Cbz-Leu-ALeu-cis-EP-COOEt, cis-3-(N^2-(N-Benzyloxycarbonyleucyl)-N^1-isobutylhydrazinocarbonyl)oxirane-2-carboxylic Acid Ethyl Ester]",–,1.88 M⁻¹ s⁻¹,0.38 M⁻¹ s⁻¹,kobs/[I] cathepsin B (cathepsin B): 6.27 M⁻¹ s⁻¹
"CCOC(=O)[C@@H]1O[C@H]1C(=O)N(CC(C)C)NC(=O)[C@H](CC(C)C)NC(=O)[C@H](CC(C)C)NC(=O)OCc1ccccc1 (relative stereo) [Cbz-Leu-Leu-ALeu-trans-EP-COOEt, trans-3-(N^2-(N-Benzyloxycarbonylleucylleucyl)-N^1-isobutylhydrazinocarbonyl)oxirane-2-carboxylic Acid Ethyl Ester]",34.8 M⁻¹ s⁻¹,2.65 M⁻¹ s⁻¹,–,–
"CCOC(=O)[C@@H]1O[C@H]1C(=O)N(CCC(N)=O)NC(=O)[C@H](Cc1ccccc1)NC(=O)[C@H](CC(C)C)NC(=O)OCc1ccccc1 (relative stereo) [Cbz-Leu-Phe-AGln-trans-EP-COOEt, trans-3-(N^2-(N-Benzyloxycarbonylleucylphenylalanyl)-N^1-carbamoylethylhydrazinocarbonyl)oxirane-2-carboxylic Acid Ethyl Ester]",0.9 M⁻¹ s⁻¹,–,–,kinact/KI (cathepsin B): 1.3 M⁻¹ s⁻¹
"CCOC(=O)[C@@H]1O[C@H]1C(=O)N(CC(C)C)NC(=O)[C@H](Cc1ccccc1)NC(=O)OCc1ccccc1 (relative stereo) [Cbz-Phe-ALeu-trans-EP-COOEt, trans-3-(N^2-(N-3-Benzyloxyphenylalanyl)-N^1-isobutylhydrazinocarbonyl)oxirane-2-carboxylic Acid Ethyl Ester]",–,–,0.91 M⁻¹ s⁻¹,kobs/[I] cathepsin B (cathepsin B): 3.61 M⁻¹ s⁻¹
"CCOC(=O)[C@@H]1O[C@H]1C(=O)N(CC(C)C)NC(=O)C(Cc1ccc2ccccc2c1)NC(=O)CCC(=O)O (relative stereo) [Suc-Np2-ALeu-trans-EP-COOEt, trans-3-(N^2-(N-Succinyl-2-naphthylalanyl)-N^1-isobutylhydrazinocarbonyl)oxirane-2-carboxylic Acid Ethyl Ester]",–,–,1.39 M⁻¹ s⁻¹,kobs/[I] cathepsin B (cathepsin B): 0.8 M⁻¹ s⁻¹
"CCOC(=O)[C@@H]1O[C@H]1C(=O)N(CCc1ccccc1)NC(=O)[C@H](CC(C)C)NC(=O)OCc1ccccc1 [Cbz-Leu-AHph-(2R, 3R)-EP-COOEt, (2R,3R)-3-(N^2-(N-Benzyloxycarbonyleucyl)-N^1-phenylethylhydrazinocarbonyl)oxirane-2-carboxylic Acid Ethyl Ester]",–,2.12 M⁻¹ s⁻¹,2.16 M⁻¹ s⁻¹,–
"CC(C)C[C@H](NC(=O)OCc1ccccc1)C(=O)NN(CCc1ccccc1)C(=O)[C@H]1O[C@@H]1C(=O)O [Cbz-Leu-AHph-(2S, 3S)-EP-COOH, (2S,3S)-3-(N^2-(N-Benzyloxycarbonyleucyl)-N^1-phenylethylhydrazinocarbonyl)oxirane-2-carboxylic Acid]",–,2.12 M⁻¹ s⁻¹,–,–
"CCOC(=O)[C@@H]1O[C@H]1C(=O)N(CC(C)C)NC(=O)C(CC(C)C)NC(=O)OCc1ccccc1 (stereo partly drawn) [Cbz-Leu-ALeu-(2R, 3R)-EP-COOEt, (2R,3R)-3-(N^2-(N-Benzyloxycarbonyleucyl)-N^1-isobutylhydrazinocarbonyl)oxirane-2-carboxylic Acid Ethyl Ester]",–,1.45 M⁻¹ s⁻¹,6.70 M⁻¹ s⁻¹,–
